Legend:
CYP17A1 [1] = target: T1, CYP17A1 (Homo sapiens, UniProt P05093); experiment: CYP17A1 17α-hydroxylase activity assay in NCI-H295R cells ([14C]-progesterone, TLC); type: cell-based; conditions: 4 h, DMSO = 100, read-out: CYP17A1 Hydroxylase activity, Mean (percentage of activity remaining relative to the control)
T1 construct: immortalised human adrenal cells expressing CYP17A1 and other steroidogenic enzymes; endogenous in cells; host or cells: NCI-H295R (human adrenal cells)
T1 sequence (P05093 1-508): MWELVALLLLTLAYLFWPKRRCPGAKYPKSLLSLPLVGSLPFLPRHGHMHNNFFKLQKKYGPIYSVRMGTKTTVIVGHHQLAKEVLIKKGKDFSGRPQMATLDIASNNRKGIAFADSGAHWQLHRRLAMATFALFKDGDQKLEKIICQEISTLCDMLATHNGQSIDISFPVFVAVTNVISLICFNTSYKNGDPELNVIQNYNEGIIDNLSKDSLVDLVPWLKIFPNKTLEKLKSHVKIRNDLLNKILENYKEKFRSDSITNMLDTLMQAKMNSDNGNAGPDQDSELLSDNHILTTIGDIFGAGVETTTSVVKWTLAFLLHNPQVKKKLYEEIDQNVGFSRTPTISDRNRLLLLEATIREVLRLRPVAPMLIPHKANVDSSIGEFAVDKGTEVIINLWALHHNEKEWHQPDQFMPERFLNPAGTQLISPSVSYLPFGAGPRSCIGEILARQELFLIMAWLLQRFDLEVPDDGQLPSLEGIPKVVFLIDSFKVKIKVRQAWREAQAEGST
Experimental: (§1) Human adrenal NCI-H295R cells are an established model for assay of CYP17A1 activities. The NCI-H295R cells were seeded in 12-well plates at 500 000 cells per well and incubated overnight. On the following day, 10 µM of test compounds were added to the wells with fresh medium and incubated for 4 h. Abiraterone was used as a reference, and DMSO was included as a control. For assessing CYP17A1 hydroxylase activity, cells were treated with [^14C]-Progesterone at 10 000 cpm/1 µM per well. Trilostane was added prior to the test compounds and substrate to inhibit 3β-hydroxysteroid dehydrogenase activity so that a clean assay of only CYP17A1 activity could be performed[20]^,[27]^,[28]. Radiolabeled steroids were extracted from the media using a mixture of ethyl acetate and isooctane (1:1 v/v) and separated by Thin Layer Chromatography (TLC) on silica gel-coated aluminium plates (Supelco® Analytics, Sigma-Aldrich Chemie GmbH, Taufkirchen, Germany). TLC spots were visualised on a phosphor screen and detected by autoradiography using a Typhoon™ FLA-7000 PhosphorImager (GE Healthcare, Uppsala, Sweden). Radioactivity was quantified with ImageQuant™ TL analysis software (GE Healthcare Europe GmbH, Freiburg, Germany), and enzyme activity was expressed as the percentage of radioactivity incorporated into the product relative to the total radioactivity. For CYP17A1 lyase activity, cells were exposed to 50 000 cpm/1 µM [21-^3H]-17α-hydroxypregnenolone per well under similar conditions. The tritiated water release assay was used to measure the conversion of 17OH-Pregnenolone to DHEA. Steroids in the media were precipitated using a 5% activated charcoal/0.5% dextran solution. Enzyme activity was evaluated based on the water-soluble tritiated by-product formed in equimolar amounts with DHEA, with radioactivity in the aqueous phase quantified by liquid scintillation counting (MicroBeta2® Plate Counter, PerkinElmer Inc., Waltham, MA, USA). Percent inhibition was calculated relative to control samples.

CYP17A1 [2] = target: T1, CYP17A1; experiment: CYP17A1 17,20-lyase activity assay in NCI-H295R cells (tritiated water release); type: cell-based; conditions: 4 h, DMSO = 100, read-out: CYP17A1 Lyase activity, Mean (percentage of activity remaining relative to the control)
Experimental: as §1

[3] = tested on: adrenal steroidogenesis in NCI-H295R cells; experiment: Steroid profiling by LC-MS in NCI-H295R cells; type: cell-based, human; conditions: compounds at 10 µM
Experimental: (§2) Steroid quantification was performed using Liquid Chromatography–Mass Spectrometry (LC-MS), following established protocols to study effect of compounds on adrenal steroidogenesis. Human adrenal NCI-H295R cells were seeded in 12-well plates at 500 000 cells per well and treated with fresh growth medium containing the test compounds for 4 h. Subsequently, 1 µM pregnenolone was added and incubated for an additional 4 h. Steroids were extracted from 500 µL aliquots of cell media, separated, and quantified according to the referenced methodology.

CYP17A1 [4] = target: T1, CYP17A1; experiment: CYP17A1 activity calculated as ratios of steroid products to substrates (LC-MS); type: cell-based; conditions: normalised to DMSO-treated cells (100%), NCI-H295R
Experimental: as §2
To provide deeper insights into CYP17A1 inhibition, the enzyme activity was calculated using ratios of steroid products to substrates, focusing on dual activities of CYP17A1 (Figure 4(B)).

[5] = Alamar blue (resazurin) cell viability, RWPE-1; type: cell-based; conditions: human, RWPE-1 cells, of the control
Experimental: (§3) LNCaP and RWPE-1 cells were plated in 96-well plates at 10 000 cells per well and incubated overnight at 37 °C with 5% CO2. VCaP cells were plated at 12 000 cells per well under the same conditions. After 24 h, the medium was replaced with fresh medium containing the compounds or abiraterone at a final concentration of 10 µM. Cells were incubated for an additional 24 and 48 h. Cell viability was measured using the Alamar Blue assay. Post-incubation, 0.05 mg/mL Alamar Blue solution in phosphate-buffered saline (PBS) was added to each well. The plates were incubated in the dark at 37 °C for 4 h, and fluorescence was measured at an excitation wavelength of 550 nm and an emission wavelength of 590 nm. Cell viability was calculated relative to control sample treated with DMSO. All experiments were conducted in triplicate.

VCaP cells = experiment: Alamar blue (resazurin) cell viability, VCaP; type: cell-based, human; conditions: 10 µM, 24 and 48 h
Experimental: as §3

LNCaP cells = experiment: Alamar blue (resazurin) cell viability, LNCaP; type: cell-based, human; conditions: 10 µM, 24 and 48 h
Experimental: as §3

DU-145 cells = experiment: Scratch (wound healing) assay; type: cell-based, human; conditions: DU-145, 10 µM, 24 h; DMSO 170.5
Experimental: Human prostate cancer DU-145 cells show strong cell proliferation and therefore, are an established model for assay of antiproliferative effects of test compounds. DU-145 cells were plated in 24-well plates at 50 000 cells per well and grown until they reached 85% confluence. To inhibit cell proliferation, cells were treated with 5 µg/mL mitomycin for 2 h. A wound was created using a 10 µL pipette tip. The cells were then exposed to drugs at a concentration of 10 µM, while control wells received DMSO. Wound closure was observed and photographed using an optical microscope after 24 h. Images were analysed using ImageJ software (version 1.54j).

[6] = not detected within the experimental timeframe, DMSO 0

Structure (SMILES): C[C@]12CC[C@H](O)CC1=CC[C@@H]1[C@@H]2CC[C@]2(C)C(c3cccnc3)=CC[C@@H]12 [ABT, abiraterone, reference compound]
- remaining activity at 10 µM (CYP17A1 [1]): 14%
- remaining activity at 10 µM (CYP17A1 [2]): 24%
- Androsterone, Mean ([3]; 1 µM pregnenolone, DMSO 0): 0 nmol/L
- Testosterone, Mean ([3]; 1 µM pregnenolone, DMSO 0.4785): 0.5005 nmol/L
- Progesterone, Mean ([3]; 1 µM pregnenolone, DMSO 4.814): 3.809 nmol/L
- Androstendione, Mean ([3]; 1 µM pregnenolone, DMSO 7.577): 1.5465 nmol/L
- 17a-Hydroxyprogesterone, Mean ([3]; 1 µM pregnenolone, DMSO 9.967): 1.202 nmol/L
- DHEA, Mean ([3]; 1 µM pregnenolone, DMSO 15.119): 2.775 nmol/L
- 11-Deoxycortisol, Mean ([3]; 1 µM pregnenolone, DMSO 26.594): 3.585 nmol/L
- 11-Deoxycorticosterone, Mean ([3]; 1 µM pregnenolone, DMSO 28.1555): 2.6135 nmol/L
- Pregnenolone, Mean ([3]; 1 µM pregnenolone, DMSO 2043.56): 2279.668 nmol/L
- Cortisone, Mean [3, 6]: 0 nmol/L
- DHEA-S, Mean [3, 6]: 0 nmol/L
- Dihydrotestosterone, Mean [3, 6]: 0 nmol/L
- 17α-Hydroxylase activity (ratios of steroid products to substrates) (CYP17A1 [4]): 15.2%
- Combined 17α-hydroxylase and 17,20-lyase activity (ratios of steroid products to substrates) (CYP17A1 [4]): ~16.3%
- viability at 24 h, 10 µM ([5]; 24 h): 84%
- viability at 48 h, 10 µM ([5]; 48 h): 66%
- Cytotoxic effect on VCaP cells (in words) (VCaP cells): notable reduction in cell viability
- Cytotoxic effect on LNCaP cells (in words) (LNCaP cells): notable reduction in cell viability
- Wound area, Mean (area remaining open) (DU-145 cells): 935 Pixels^2

— publication PMC11834790, “Pyridine indole hybrids as novel potent CYP17A1 inhibitors” (Journal of Enzyme Inhibition and Medicinal Chemistry, 2025)
